Assay results reported in PMC11249646, “Small-Molecule Disruptors of the Interaction between Calcium- and Integrin-Binding Protein 1 and Integrin αIIbβ3 as Novel Antiplatelet Agents” (ACS Pharmacology & Translational Science, 2024).
Read-outs that look alike come from different tables or passages of the source.

Tests used:
Assay type in all cases: binding
[1] = biological target: T1, GST-CIB1 : F-scrambled peptide (Homo sapiens, UniProt Q99828); experiment: FP scrambled-peptide counter screen, 384-well format; details: F-scrambled peptide; for 384-well COUNTERSCREEN Confirm?: *: Curve in opposite direction; for IC50: read-out: 384-well COUNTERSCREEN IC50
T1 construct: made in house; host or cells: BL-21 plus RIL cells (E. coli)
T1 sequence (Q99828 1-191): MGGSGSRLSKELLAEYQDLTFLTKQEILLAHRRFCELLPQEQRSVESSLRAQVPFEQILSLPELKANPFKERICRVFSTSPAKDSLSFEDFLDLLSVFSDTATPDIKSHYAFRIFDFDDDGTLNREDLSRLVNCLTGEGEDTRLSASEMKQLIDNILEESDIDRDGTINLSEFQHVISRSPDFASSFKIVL

[2] = biological target: T2, CIB1 and αIIb interaction (GST-CIB1 : F-αIIb peptide) (Homo sapiens, UniProt Q99828); experiment: FP assay, 384-well format (screen); set-up: 384-well SCREEN Efficacy (%): concentration or dose not given beside the values; details: F-αIIb peptide; for 384-well SCREEN Confirm?: YES/NO; for IC50: read-out: 384-well SCREEN IC50
T2 construct: made in house; host or cells: BL-21 plus RIL cells (E. coli)
T2 sequence (Q99828 1-191): T1 sequence (Q99828 1-191)

[3] = biological target: T1, GST-CIB1 : F-scrambled peptide; experiment: FP scrambled-peptide counter screen, 1536-well format; details: scrambled-peptide counterscreen; for COUNTERSCREEN Confirm?: YES/NO call; for COUNTERSCREEN Curve Class: qHTS curve class; for IC50: read-out: COUNTERSCREEN IC50
[4] = biological target: T3, CIB1 and αIIb interaction (CIB1-GST : F-αIIb peptide) (Homo sapiens, UniProt Q99828); experiment: FP assay, 1536-well qHTS format (primary and confirmatory screen); details: for CONFIRMATORY SCREEN Confirm?: YES/NO call; for CONFIRMATORY SCREEN Curve Class: qHTS curve class; for CONFIRMATORY SCREEN Curve Class / Curve Class: negative sign = inhibitory curve; for CONFIRMATORY SCREEN Efficacy (%) / Efficacy (%): negative = inhibition
T3 construct: made in house; host or cells: BL-21 plus RIL cells (E. coli)
T3 sequence (Q99828 1-191): T1 sequence (Q99828 1-191)

[5] = qHTS primary screen hits, Table S2
[6] = qHTS primary screen hits, Table S2, read-out: IC50
[7] = confirmatory screen, read-out: CONFIRMATORY SCREEN IC50
[8] = qHTS primary screen hits, Table S2, several classes where COUNT > 1

SMILES | 384-well COUNTERSCREEN Efficacy (%) [1] | 384-well COUNTERSCREEN Confirm? [1] | IC50 [1] | 384-well SCREEN Efficacy (%) [2] | 384-well SCREEN Confirm? [2] | IC50 [2] | COUNTERSCREEN Efficacy (%) [3] | COUNTERSCREEN Confirm? [3] | COUNTERSCREEN Curve Class [3] | CONFIRMATORY SCREEN Confirm? ([4]; confirmatory screen) | CONFIRMATORY SCREEN Curve Class ([4]; confirmatory screen) | CONFIRMATORY SCREEN Efficacy (%) ([4]; confirmatory screen) | Efficacy (%) [4, 5] | IC50 [4, 6] | IC50 [3] | IC50 [4, 7] | Curve Class [4, 8] | also measured
Cc1ccc(S(=O)(=O)Nc2cnccc2C(=O)Nc2nc(-c3cccc(Cl)c3)cs2)cc1.O=C(O)C(F)(F)F [NCGC00318956-01] | 84% | YES* | 20 µM | 43% | YES | 14.2 µM | -8.5% | YES | 4 | YES | -1.1 | -94% | -32% | 12.6 µM |  |  |  | Curve Class [4, 5]: -1.4
Cc1ccc(S(=O)(=O)Nc2cnccc2C(=O)Nc2nc(-c3ccc(Cl)cc3)cs2)cc1.O=C(O)C(F)(F)F [NCGC00318981-01] | 60% |  | 28.2 µM | 45% |  | > 120 µM | 53% | YES | 3 | YES | -1.2 | -69% | -35% | 31.6 µM | 89.1 µM | 28.2 µM | -1.2 | 
COc1cccc(-c2csc(NC(=O)c3ccncc3NS(=O)(=O)c3ccc(C)cc3)n2)c1 [NCGC00319006-02] | 18% | YES | > 120 µM | 52% | YES | 20 µM | -41% | YES | -3 | YES | -2.2 | -89% |  |  | 89.1 µM | 31.6 µM |  | 
Cc1ccc(-c2csc(NC(=O)c3ccncc3NS(=O)(=O)c3ccc(C)cc3)n2)cc1.O=C(O)C(F)(F)F [NCGC00319008-01] | 70% | YES* | 8.9 µM | 46% | YES | 10.7 µM | 26% | YES | 4 | YES | -1.2 | -50% |  |  |  |  |  | Efficacy (%) ([4]; qHTS FP screen hits, Table S2): -45%; Curve Class ([4]; qHTS FP screen hits, Table S2, one class per curve where COUNT > 1): -1.2; IC50 ([4]; qHTS FP screen hits, Table S2, read-out: IC50): 17.8 µM
Cc1ccc(S(=O)(=O)Nc2cnccc2C(=O)Nc2nc(-c3cccc(C)c3)cs2)cc1.O=C(O)C(F)(F)F [NCGC00343524-02] | 60% | YES* | 14.1 µM | 42% | YES | 10.1 µM | 14% | YES | 4 | YES | -2.1 | -128% | -40% | 35.5 µM |  | 20 µM | -2.2 | 
Cc1ccc(S(=O)(=O)Nc2cnccc2C(=O)Nc2nc(-c3nc4ccccc4s3)cs2)cc1.O=C(O)C(F)(F)F [NCGC00343736-01] | 23% | YES | > 120 µM | 44% | YES | 22.4 µM | -16% | YES | 4 | YES | -1.1 | -89% | -51% | 28.2 µM |  |  |  | Curve Class [4, 5]: -1.2
N#Cc1cnc(NS(=O)(=O)c2ccc(NC(=O)Cc3ccc(F)c(Cl)c3)cc2)s1.O=C(O)C(F)(F)F [NCGC00343826-01] | 28% | YES | > 120 µM | 36% | YES | 2.2 µM | 24% | YES | 4 | YES | -1.4 | -50% | -29% | 2.8 µM |  |  | -1.2 | 
Cc1ccc(S(=O)(=O)Nc2cnccc2C(=O)Nc2nc3ccccc3s2)cc1.O=C(O)C(F)(F)F [NCGC00343897-01] | 16% | YES | > 120 µM | 30% | YES | 12.6 µM | 17% | YES | 4 | YES | -1.4 | -52% | -44% | 31.6 µM |  | 10 µM | -1.2 | 
N[C@@H](Cc1ccc(Oc2cc(I)c(O)c(I)c2)c(I)c1)C(=O)O [NCGC00344545-01] | 51% |  | 3.1 µM | 46% | YES | 10 µM | -19% | YES | 4 | YES | -1.2 | -60% | -39% | 39.8 µM |  | 15.8 µM | -2.2 | 
Cc1cc(SCc2sc(-c3ccc(Cl)c(Cl)c3)nc2C)ccc1OCc1nnn[nH]1.O=C(O)C(F)(F)F [NCGC00344871-01] | 167% |  | 44.7 µM | 42% |  | > 120 µM | 204% | YES |  | YES | -1.2 | -63% | -38% | 17.8 µM | 79.4 µM | 15.8 µM | -1.2 | 
